Values quoted from earlier work, collected in US20020058028A1, “METHOD OF IN SITU DIAGNOSIS BY SPECTROSCOPIC ANALYSIS OF BIOLOGICAL STAIN COMPOSITIONS” (priority 1999, published 2002).
Read-outs that look alike come from different tables or passages of the source.

Key:
Schistosoma mansoni = settings: in vitro
Staphylococcus aureus = settings: for active concentration against epidemic strains of methicillin-resistant Staphylococcus aureus: compared with vancomycin
[1] = test system: human epidermoid carcinoma (A-253) cells
bladder carcinoma cells = settings: in vitro; versus Azure C, Methylene violet, Thionin, methylene green, haematoporphyrin
C. albicans [2] = settings: energy dose 1.32 J at 2.04 J/cm2
[3] = test system: microtubule cytoskeleton of cultured cells; settings: untreated control cells normal
[4] = test system: local tumor recurrence in the area of the anastomosis
solid Ehrlich carcinomas = settings: mice; laser 647 nm and 676 nm
HeLa cells = settings: for incubation time to saturation of uptake: 10(−5) M
Trichoderma Viride = settings: outside the body
[5] = test system: influenza or encephalomyelitis viruses; settings: human blood plasma; plasma proteins not significantly altered
[6] = test system: several other Candida spp.
C. albicans [7] = settings: conditions employed

In the case of `CN(C)c1ccc2cc3ccc(N(C)C)cc3nc2c1` [acridine orange], the “killing upon exposure to light” value (Schistosoma mansoni) is given as “kills”.

For `Cc1cc(=[N+](C)C)cc2sc3cc(N(C)C)cc(C)c3nc1-2.[Cl-]` [dimethyl methylene blue], the “active concentration against epidemic strains of methicillin-resistant Staphylococcus aureus” value (Staphylococcus aureus) is given as “lower than that of vancomycin” and the “increase in bactericidal activity on illumination, typical” value (“increase in bactericidal activity” below) (Staphylococcus aureus) is given as about 4 fold.

In the case of `CCCCN1C(=O)C(=C/C=C/C=C2\Oc3ccccc3N2CCCS(=O)(=O)[O-])C(=O)N(CCCC)C1=S.[Na+]` [merocyanine 540], the “white light dose for ninety % reduction of clonogenicity” value (shortened to “white light dose for ninety % reduction”) [1] is listed as 1.5 J/cm2.

In the case of `CN(C)c1ccc2nc3ccc(=[N+](C)C)cc-3sc2c1` [methylene blue], the “phototoxicity compared with other dyes” value (bladder carcinoma cells) is listed as “most phototoxic”, the “sensitization to killing by GaAs laser light” value (C. albicans [2]) is listed as “able to sensitize” and the “microtubule network after photodynamic treatment” value [3] is listed as “considerable or severe disorganization of the microtubule network”. For the same compound, the “killing upon exposure to light” value (Schistosoma mansoni) was “kills”, the “local tumor growth in treated areas” value ([4]; after PDT-treatment) was “no local tumor growth within 6 months” and the “complications during or after PDT” value ([4]; experimental or clinical) was “no experimental or clinical complications”. The tumor destruction (solid Ehrlich carcinomas) was “significant tumor destruction, including complete tumor destruction”, the tumor necrosis (small adenocarcinomas; 72 hours after PDT-treatment, proven experimentally) was 4-5 mm and the tumors destroyed (small adenocarcinomas; after the second PDT-treatment) was 6 out of 10. For the same compound, the “carcinomas with inhibited growth” value (small adenocarcinomas; after the treatment) was “Four”, the “incubation time to saturation of uptake” value (HeLa cells; HeLa cells) was 6 h and the “cell photoinactivation, comparison” value (HeLa cells; HeLa cells) was “higher than that produced by TB”. For the same compound, the “concentration at which dark damage was not observed” value (HeLa cells; HeLa cells, elevated photoinactivation detected at this concentration) was 10(−5) M, the killing upon illumination (Trichoderma Viride) was “kill” and the “increase in bactericidal activity” value (Staphylococcus aureus) was about 4 fold.

In the case of `CCNc1cc2[s+]c3cc(NCC)c(C)cc3nc2cc1C.[Cl-]` [new methylene blue], the “active concentration against epidemic strains of methicillin-resistant Staphylococcus aureus” value (Staphylococcus aureus) is listed as “lower than that of vancomycin” and the “increase in bactericidal activity” value (Staphylococcus aureus) is listed as about 4 fold.

For `Cc1cc2nc3ccc(N(C)C)cc3[s+]c2cc1N.[Cl-]` [toluidine blue O, 3-amino-7-(dimethylamino)-2-methyl phenothiazin-5-ium chloride], the “virus inactivation by light in presence of dye” value [5] is listed as “inactivated by light”, the “microtubule network after photodynamic treatment” value [3] is listed as “considerable or severe disorganization of the microtubule network” and the “sensitization to killing by HeNe laser light” value [6] is listed as “able to sensitize”. The “white light dose for ninety % reduction” value [1] was 1.0 J/cm2, the “ATP levels after photodynamic treatment” value (Kluyveromyces marxianus) was “lowered the ATP levels” and the “enzyme inhibition after treatment with dye and light” value (Kluyveromyces marxianus) was “inhibition of alcohol dehydrogenase, cytochrome c oxidase, glyceraldehyde-3-phosphate dehydrogenase and hexokinase”. For the same compound, the clonogenicity (Kluyveromyces marxianus; photosensitizer with light) was “induce loss of clonogenicity”, the “concentration at which dark damage was not observed” value (HeLa cells) was 10(−5) M and the “incubation time to saturation of uptake” value (HeLa cells; HeLa cells) was 12 h.

For `CN[C@H](CC(C)C)C(=O)N[C@H]1C(=O)N[C@@H](CC(N)=O)C(=O)N[C@H]2C(=O)N[C@H]3C(=O)N[C@H](C(=O)N[C@H](C(=O)O)c4cc(O)cc(O)c4-c4cc3ccc4O)[C@H](O)c3ccc(c(Cl)c3)Oc3cc2cc(c3O[C@@H]2O[C@H](CO)[C@@H](O)[C@H](O)[C@H]2O[C@H]2C[C@](C)(N)[C@H](O)[C@H](C)O2)Oc2ccc(cc2Cl)[C@H]1O` [vancomycin], the “concentration against epidemic strains of methicillin-resistant Staphylococcus aureus” value (Staphylococcus aureus; comparator) is listed as at least 0.5 µM.

For Dihaematoporphyrin ester, the photosensitizer effectiveness (C. albicans [7]) is given as “not an effective photosensitizer”.

In the case of aluminum disulphonated phthalocyanine, the “sensitization to killing by GaAs laser light” value (C. albicans [2]) is given as “not”.

For rhodamine 123, the “white light dose for ninety % reduction” value [1] is listed as 1.2 J/cm2.
